Reference: the NIST ThermoML archive (doi:10.1021/acs.jced.8b00589)

Assay: xn = mol fraction of the nth substance listed
Settings: for surface tension liquid-gas: Ring tensiometer; for viscosity / speed of sound / mass density: 100 kPa, Liquid; for viscosity: Capillary tube (Ostwald / Ubbelohde) method; for speed of sound: Frequency=2 MHz, Linear variable-path acoustic interferometer; for mass density: Vibrating tube method

CCC(C)(C)OC [2-methoxy-2-methylbutane] + CCCCCC
Settings | mass density [kg/m3] | speed of sound [m/s] | surface tension liquid-gas [mN/m] | viscosity [mPa·s]
298.15 K, x1 = 0.1632 | 672.8 | 1077.8 | 17.99 | 0.311
298.15 K, x1 = 0.2584 | 683.2 | 1082.2 | 18.21 | 0.318
298.15 K, x1 = 0.3742 | 695.5 | 1087.5 | 18.5 | 0.327
298.15 K, x1 = 0.4276 | 701.6 | 1088.6 | 18.62 | 0.331
298.15 K, x1 = 0.5464 | 714.8 | 1092.8 | 18.73 | 0.346
298.15 K, x1 = 0.6121 | 722.3 | 1096.1 | 18.88 | 0.356
298.15 K, x1 = 0.7457 | 737.2 | 1103.5 | 19.15 | 0.381
298.15 K, x1 = 0.8625 | 750.1 | 1112.2 | 19.42 | 0.402
298.15 K, x1 = 1 | 765.6 | 1118 | 19.72 | 0.424
308.15 K, x1 = 0.1632 | 663.2 | 1035.5 | 16.88 | 0.274
308.15 K, x1 = 0.2584 | 673.8 | 1039.4 | 17.1 | 0.281
308.15 K, x1 = 0.3742 | 686.5 | 1045.1 | 17.4 | 0.293
308.15 K, x1 = 0.4276 | 692.3 | 1046.8 | 17.52 | 0.298
308.15 K, x1 = 0.5464 | 705.2 | 1049.6 | 17.64 | 0.313
308.15 K, x1 = 0.6121 | 712.5 | 1053.2 | 17.79 | 0.322
308.15 K, x1 = 0.7457 | 727.4 | 1060.4 | 18.07 | 0.342
308.15 K, x1 = 0.8625 | 740.7 | 1069.2 | 18.35 | 0.362
308.15 K, x1 = 1 | 756.3 | 1075.6 | 18.66 | 0.39
318.15 K, x1 = 0.1632 | 653.5 | 984.7 | 15.78 | 0.249
318.15 K, x1 = 0.2584 | 663.8 | 988.75 | 16.01 | 0.256
318.15 K, x1 = 0.3742 | 676.6 | 994.36 | 16.33 | 0.266
318.15 K, x1 = 0.4276 | 682.4 | 996.61 | 16.46 | 0.271
318.15 K, x1 = 0.5464 | 695.3 | 1002.4 | 16.58 | 0.284
318.15 K, x1 = 0.6121 | 702.5 | 1006.8 | 16.74 | 0.292
318.15 K, x1 = 0.7457 | 717.7 | 1013.8 | 17.03 | 0.311
318.15 K, x1 = 0.8625 | 730.6 | 1022.8 | 17.32 | 0.331
318.15 K, x1 = 1 | 746.3 | 1030.2 | 17.65 | 0.357
323.15 K, x1 = 0.1632 | 648.6 | 963.82 | 15.22 | 0.239
323.15 K, x1 = 0.2584 | 658.8 | 967.24 | 15.47 | 0.245
323.15 K, x1 = 0.3742 | 671.5 | 971.83 | 15.78 | 0.254
323.15 K, x1 = 0.4276 | 677.3 | 973.34 | 15.92 | 0.258
323.15 K, x1 = 0.5464 | 690.4 | 977.27 | 16.04 | 0.27
323.15 K, x1 = 0.6121 | 697.6 | 980.49 | 16.2 | 0.277
323.15 K, x1 = 0.7457 | 712.5 | 984.8 | 16.5 | 0.294
323.15 K, x1 = 0.8625 | 725.8 | 994.84 | 16.8 | 0.312
323.15 K, x1 = 1 | 741.4 | 1003 | 17.13 | 0.335
328.15 K, x1 = 0.1632 | 643.6 | 942.3 | 14.67 | 0.23
328.15 K, x1 = 0.2584 | 653.7 | 945.14 | 14.92 | 0.235
328.15 K, x1 = 0.3742 | 666.5 | 949.52 | 15.24 | 0.244
328.15 K, x1 = 0.4276 | 672.3 | 951.24 | 15.38 | 0.248
328.15 K, x1 = 0.5464 | 685.3 | 955.05 | 15.5 | 0.259
328.15 K, x1 = 0.6121 | 692.6 | 958.72 | 15.67 | 0.266
328.15 K, x1 = 0.7457 | 707.5 | 963.63 | 15.97 | 0.283
328.15 K, x1 = 0.8625 | 720.8 | 974.08 | 16.27 | 0.301
328.15 K, x1 = 1 | 736.5 | 985.22 | 16.62 | 0.323
